Experimental data taken from PubChem BioAssay AID1963834 (Molecular Pharmacology Branch, DTP, NCI, 2024).

Tested on: 873145-292-R-J1-PDC complex spheroid viability
Assay: Anticancer human tumor 873145-292-R-J1-PDC patient-derived renal clear cell carcinoma cell line growth inhibition [POLQ]
Conditions: for IC50: curve of first compound; for viability, T/C: stronger effect = lower value
In short: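 Three-cell-type spheroids modelling solid tumor plus stroma served as the readout system; POL inhibitors were tested individually and in combination, concentration ranges set by clinical Cmax where known.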

[1] = second compound 0.0316 µM, first compound 0.0316 µM
[2] = second compound 0.0316 µM, first compound 0.1 µM
[3] = second compound 0.0316 µM, first compound 0.316 µM
[4] = second compound 0.0316 µM, first compound 1 µM
[5] = second compound 0.0316 µM, first compound 3.16 µM
[6] = second compound 0.0316 µM, first compound 10 µM
[7] = second compound 0.1 µM, first compound 0.0316 µM
[8] = second compound 0.1 µM, first compound 0.1 µM
[9] = second compound 0.1 µM, first compound 0.316 µM
[10] = second compound 0.1 µM, first compound 1 µM
[11] = second compound 0.1 µM, first compound 3.16 µM
[12] = second compound 0.1 µM, first compound 10 µM
[13] = second compound 0.316 µM, first compound 0.0316 µM
[14] = second compound 0.316 µM, first compound 0.1 µM
[15] = second compound 0.316 µM, first compound 0.316 µM
[16] = second compound 0.316 µM, first compound 1 µM
[17] = second compound 0.316 µM, first compound 3.16 µM
[18] = second compound 0.316 µM, first compound 10 µM
[19] = second compound 1 µM, first compound 0.0316 µM
[20] = second compound 1 µM, first compound 0.1 µM
[21] = second compound 1 µM, first compound 0.316 µM
[22] = second compound 1 µM, first compound 1 µM
[23] = second compound 1 µM, first compound 3.16 µM
[24] = second compound 1 µM, first compound 10 µM
[25] = second compound 3.16 µM, first compound 0.0316 µM
[26] = second compound 3.16 µM, first compound 0.1 µM
[27] = second compound 3.16 µM, first compound 0.316 µM
[28] = second compound 3.16 µM, first compound 1 µM
[29] = second compound 3.16 µM, first compound 3.16 µM
[30] = second compound 3.16 µM, first compound 10 µM
[31] = second compound 10 µM, first compound 0.0316 µM
[32] = second compound 10 µM, first compound 0.1 µM
[33] = second compound 10 µM, first compound 0.316 µM
[34] = second compound 10 µM, first compound 1 µM
[35] = second compound 10 µM, first compound 3.16 µM
[36] = second compound 10 µM, first compound 10 µM
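Further: spheroids exposed to compounds for 7 days before viability readout.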
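Wherever viability, T/C is given: luminescence signal used as surrogate for viable cell content; 100% = DMSO vehicle control viability.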

In the case of `C#Cc1c(F)ccc2cc(O)cc(-c3ncc4c(N5CC6CCC(C5)N6)nc(OCC56CCCN5CC(F)C6)nc4c3F)c12` (stereo not drawn) + Cc1cccc(N(C)C(=O)C2C(O)CCN2c2nc(C)cc(C(F)(F)F)c2C#N)c1, the IC50 (second compound 0.0316 µM) is reported as > 10 µM, the IC50 (second compound 0.1 µM) is reported as > 10 µM and the IC50 (second compound 0.316 µM) is reported as > 10 µM. For the same molecule, the IC50 (second compound 1 µM) was > 10 µM, the IC50 (second compound 3.16 µM) was > 10 µM and the IC50 (second compound 10 µM) was > 10 µM. The viability, T/C [1] was 94.5%, the viability, T/C [2] was 112% and the viability, T/C [3] was 88%. It also gave a viability, T/C [4] of 91%, a viability, T/C [5] of 98% and a viability, T/C [6] of 88.8%. For the same molecule, the viability, T/C [7] was 103%, the viability, T/C [8] was 97.4% and the viability, T/C [9] was 89.5%. It also gave a viability, T/C [10] of 89%, a viability, T/C [11] of 102% and a viability, T/C [12] of 92.1%. It also gave a viability, T/C [13] of 96%, a viability, T/C [14] of 94.6% and a viability, T/C [15] of 107%. For the same molecule, the viability, T/C [16] was 92.1%, the viability, T/C [17] was 87.3% and the viability, T/C [18] was 90.7%. The viability, T/C [19] was 99.8%, the viability, T/C [20] was 89.2% and the viability, T/C [21] was 91.2%. It also gave a viability, T/C [22] of 93.7%, a viability, T/C [23] of 95.1% and a viability, T/C [24] of 88.8%. The viability, T/C [25] was 87.1%, the viability, T/C [26] was 84.5% and the viability, T/C [27] was 89.6%. For the same molecule, the viability, T/C [28] was 95.9%, the viability, T/C [29] was 85.1% and the viability, T/C [30] was 89.6%. The viability, T/C [31] was 86.5%, the viability, T/C [32] was 95.8% and the viability, T/C [33] was 95.8%. The viability, T/C [34] was 94.4%, the viability, T/C [35] was 82.5% and the viability, T/C [36] was 86.9%.
With `CC1COCCN1c1cc(C2(O)CC3CCC(C2)O3)c2cnn(-c3ccn[nH]3)c2n1` (stereo not drawn) + Cc1cccc(N(C)C(=O)C2C(O)CCN2c2nc(C)cc(C(F)(F)F)c2C#N)c1 the IC50 (second compound 0.0316 µM) was 0.478 µM, the IC50 (second compound 0.1 µM) was 0.61 µM and the IC50 (second compound 0.316 µM) was 0.405 µM. The IC50 (second compound 1 µM) was 0.511 µM, the IC50 (second compound 3.16 µM) was 0.378 µM and the IC50 (second compound 10 µM) was 0.306 µM. For the same molecule, the viability, T/C [1] was 84.4%, the viability, T/C [2] was 67.5% and the viability, T/C [3] was 54%. For the same molecule, the viability, T/C [4] was 44.3%, the viability, T/C [5] was 37.2% and the viability, T/C [6] was 38%. For the same molecule, the viability, T/C [7] was 93.5%, the viability, T/C [8] was 76.4% and the viability, T/C [9] was 57.1%. The viability, T/C [10] was 43.2%, the viability, T/C [11] was 39.5% and the viability, T/C [12] was 32%. It also gave a viability, T/C [13] of 94.5%, a viability, T/C [14] of 82.5% and a viability, T/C [15] of 52.5%. It also gave a viability, T/C [16] of 40.4%, a viability, T/C [17] of 40.3% and a viability, T/C [18] of 35.9%. It also gave a viability, T/C [19] of 84.8%, a viability, T/C [20] of 71.6% and a viability, T/C [21] of 54%. It also gave a viability, T/C [22] of 44.1%, a viability, T/C [23] of 42.1% and a viability, T/C [24] of 39.8%. The viability, T/C [25] was 90.1%, the viability, T/C [26] was 63.1% and the viability, T/C [27] was 55.6%. For the same molecule, the viability, T/C [28] was 41.3%, the viability, T/C [29] was 36.6% and the viability, T/C [30] was 35.6%. The viability, T/C [31] was 86.2%, the viability, T/C [32] was 68.8% and the viability, T/C [33] was 49%. It also gave a viability, T/C [34] of 38.4%, a viability, T/C [35] of 39.5% and a viability, T/C [36] of 32%.
`CCc1cc2c(N3CCc4c(cc(Cn5ccnc5)cc4-c4cn(C)nc4C(F)(F)F)C3=O)cc(C)nc2c(OC)n1` + Cc1cccc(N(C)C(=O)C2C(O)CCN2c2nc(C)cc(C(F)(F)F)c2C#N)c1 was tested, and the IC50 (second compound 0.0316 µM) was > 10 µM, the IC50 (second compound 0.1 µM) was > 10 µM and the IC50 (second compound 0.316 µM) was > 10 µM. For the same molecule, the IC50 (second compound 1 µM) was > 10 µM, the IC50 (second compound 3.16 µM) was > 10 µM and the IC50 (second compound 10 µM) was > 10 µM. The viability, T/C [1] was 99.1%, the viability, T/C [2] was 99.8% and the viability, T/C [3] was 102%. The viability, T/C [4] was 77.3%, the viability, T/C [5] was 105% and the viability, T/C [6] was 83.2%. It also gave a viability, T/C [7] of 97.1%, a viability, T/C [8] of 99.8% and a viability, T/C [9] of 80.5%. The viability, T/C [10] was 90.5%, the viability, T/C [11] was 93.9% and the viability, T/C [12] was 89.8%. The viability, T/C [13] was 97.4%, the viability, T/C [14] was 102% and the viability, T/C [15] was 76.1%. The viability, T/C [16] was 97.5%, the viability, T/C [17] was 84.2% and the viability, T/C [18] was 87.4%. It also gave a viability, T/C [19] of 93%, a viability, T/C [20] of 86.5% and a viability, T/C [21] of 91.4%. It also gave a viability, T/C [22] of 79.4%, a viability, T/C [23] of 102% and a viability, T/C [24] of 70.2%. The viability, T/C [25] was 90.7%, the viability, T/C [26] was 87.4% and the viability, T/C [27] was 87.5%. It also gave a viability, T/C [28] of 96.7%, a viability, T/C [29] of 77.2% and a viability, T/C [30] of 89.6%. It also gave a viability, T/C [31] of 89.1%, a viability, T/C [32] of 102% and a viability, T/C [33] of 93.1%. For the same molecule, the viability, T/C [34] was 88.5%, the viability, T/C [35] was 76.7% and the viability, T/C [36] was 81.6%.
`COc1cccc2c1C(=O)c1c(O)c3c(c(O)c1C2=O)CC(O)(C(=O)CO)CC3OC1CC(N)C(O)C(C)O1` (stereo not drawn) + Nc1ccc(C#CCN(C(=O)Cc2ncc(C(F)(F)F)cc2C(F)(F)F)c2ccc(F)cc2)nn1 was tested, and the IC50 (second compound 0.0316 µM) was 1.6 µM, the IC50 (second compound 0.1 µM) was 1.64 µM and the IC50 (second compound 0.316 µM) was 1.62 µM. It also gave an IC50 (second compound 1 µM) of 1.66 µM, an IC50 (second compound 3.16 µM) of 1.25 µM and an IC50 (second compound 10 µM) of 0.877 µM. The viability, T/C [1] was 100%, the viability, T/C [2] was 86.6% and the viability, T/C [3] was 95.9%. The viability, T/C [4] was 81.7%, the viability, T/C [5] was 3.57% and the viability, T/C [6] was 1.97%. The viability, T/C [7] was 113%, the viability, T/C [8] was 93.3% and the viability, T/C [9] was 85.1%. For the same molecule, the viability, T/C [10] was 84.7%, the viability, T/C [11] was 3.75% and the viability, T/C [12] was 2.69%. The viability, T/C [13] was 98.9%, the viability, T/C [14] was 91.9% and the viability, T/C [15] was 84.3%. It also gave a viability, T/C [16] of 83%, a viability, T/C [17] of 4.08% and a viability, T/C [18] of 2.88%. It also gave a viability, T/C [19] of 99.1%, a viability, T/C [20] of 85.7% and a viability, T/C [21] of 84.5%. It also gave a viability, T/C [22] of 86.2%, a viability, T/C [23] of 3.81% and a viability, T/C [24] of 3.33%. The viability, T/C [25] was 92.4%, the viability, T/C [26] was 93.9% and the viability, T/C [27] was 99%. The viability, T/C [28] was 61.4%, the viability, T/C [29] was 1.38% and the viability, T/C [30] was 2.89%. The viability, T/C [31] was 106%, the viability, T/C [32] was 97.5% and the viability, T/C [33] was 111%. For the same molecule, the viability, T/C [34] was 42.9%, the viability, T/C [35] was 1.14% and the viability, T/C [36] was 2.84%.
